From patent publication US9302993B2, “8-hydroxy quinoline derivatives” (PRANA BIOTECHNOLOGY LIMITED, priority 2002, dated 2016)
Several values for one entry are separate records, joined by “and”; a condition that tells them apart may be missing. Identical values can stand only once. Like-named read-outs stand apart in the source and are kept apart here.

Columns and labels:
[1] = target: T1, hydrogen peroxide generation by Aβ in the presence of copper (Homo sapiens, UniProt P05067); experiment: Fluorometric H2O2 assay (Assay 1); assay type: biochemical; details: DCF/HRP, 37 C 60 min, several values in one cell = repeat determinations
T1 construct: The reaction solutions contained Aβ 1-42 at concentrations in the range of 50 nM to 1 μM
Experimental: Assay 1. Fluorometric H2O2 Assay
A fluorometric assay was used to test the ability of a test compound to inhibit hydrogen peroxide generation by Aβ in the presence of copper based on dichlorofluoroscein diacetate (DCF; Molecular Probes, Eugene Oreg.). The DCF solution (5 mM) in 100% dimethyl sulphoxide (previously purged with argon for 2 hr at 20° C.) was deacetylated in the presence of 0.25M NaOH for 30 min and neutralised at pH 7.4 to a final concentration of 1 mM. Horseradish peroxidase (HRP) stock solution was prepared to 1 μM at pH 7.4. The reactions were carried out in PBS, pH 7.4 in a 96 well plate (total volume=250 μl/well). The reaction solutions contained Aβ 1-42 at concentrations in the range of 50 nM to 1 μM, copper-glycine chelate (Cu-Gly), was prepared by adding CuCl2 to glycine in the ratio of 1:6 and added to the Aβ in the proportion 2Cu-Gly: 1Aβ), reducing agents including dopamine (5 μM) or ascorbic acid, deacetylated DCF 100 μM, and HRP, 0.1 μM. […] The reaction mixture was incubated at 37 C for 60 min. […] H2O2 concentration may be established by comparing fluorescence with the H2O2 standards. Inhibition of AB H2O2 production was assayed by including a given concentration of test compound(s) in the test wells.

[2] = test system: Neuronal cortical cells; experiment: Assay for test compound cytoxicity, MTS (Assay 3(d)); assay type: cell-based, mouse; details: BL6J×129sv, mouse, 4 days, 10 uM
Experimental: Media was then replaced with Neurobasal media (Invitrogen Life Technologies) and B27 supplements (Invitrogen Life Technologies). Cultures were maintained at 37° C. in 5% CO2. Prior to experimentation, the culture medium was replaced with Neurobasal media and B27 minus antioxidants (Invitrogen Life Technologies).
Cell viability is determined using the MTS assay. Culture medium is […] replaced with fresh neurobasal medium plus B27 supplements minus antioxidants. 1/10th volume MTS solution (Cell Titre 96 Aqueous One, Promega Corporation) and incubated at 37° C., 2 hrs. 200 microliter aliquots are measured with a spectrophotometer at 560 nm.
(d) Assay for Test Compound Cytoxicity
Neuronal cortical cells were cultured for five days as per Assay 2 in NB media and B27 supplement.
On day six the test compounds were added to the neuronal cell cultures in NB media and B27 supplement minus antioxidants.
Test compounds were dissolved in 100% DMSO to a concentration of 2.5 mM (10 mM if excess compound was weighed out per vial—then diluted to 2.5 mM). […] Test compounds were not added directly to cells, instead they were added to a 48 well ‘Drug Plate’ as comprised below:
The Drug Plate was incubated at 37° C. for 15 mins. 200 ul of each well was added in triplicate to the corresponding cell plate. The cell plate was incubated at 37 C, for 4 days.
On completion of the assay, 1/10 volume MTS was added per well of plate (ie 25 ul/250 ul). The plates were incubated at 37 C for 2 hrs, and then absorbance was read at 560 nm.

[3] = Aβ 1-42 with Cu-Gly, read-out: Peroxide IC50

T1 sequence (P05067 672-713 limits assumed): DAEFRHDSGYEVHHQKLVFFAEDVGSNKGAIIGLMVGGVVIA

## O=C(O)C1OC(Oc2cccc3cccnc23)[C@H](O)[C@@H](O)[C@H]1O (some centres unmarked) [compound 39]
[1]; [3]
  IC50: 90 µM

## O=S(=O)(O)c1ccc2cccc(O)c2n1 [compound 50]
[1]; [3]
  IC50: 90 µM

## O=C(O)c1cc(O)c2cccc(O)c2n1 [compound 52]
[1]; Peroxide IC50, Aβ 1-42 with Cu-Gly
  IC50: > 100 µM

## O=C(O)c1ccc2cccc(O)c2n1 [compound 57]
[1]; [3]
  IC50: 40 µM

## OCC1OC(Oc2cccc3cccnc23)[C@H](O)[C@@H](O)[C@H]1O (some centres unmarked) [compound 62]
[1]; [3]
  IC50: > 10 µM

## Oc1ccc(CCc2ccc3cccc(O)c3n2)cc1 [compound 91]
[1]; [3]
  IC50: 50 µM and > 10 µM

## COc1ccc(-c2cc(Cl)c3cccnc3c2OC(C)C)cc1 [compound 800]
[1]; [3]
  IC50: > 10 µM

## COc1cccc(-c2cc(Cl)c3cccnc3c2OC(C)C)c1 [compound 801]
[1]; [3]
  IC50: > 10 µM

## CC(C)Oc1c(-c2ccc(F)cc2)cc(Cl)c2cccnc12 [compound 802]
[1]; [3]
  IC50: > 10 µM

## CC(C)Oc1c(-c2ccccc2F)cc(Cl)c2cccnc12 [compound 803]
[1]; [3]
  IC50: > 10 µM

## CC(C)Oc1c(I)cc(Cl)c2cccnc12 [compound 804]
[1]; [3]
  IC50: > 10 µM

## Cc1ccccc1-c1cc(Cl)c2c(-c3ccccc3C)ccnc2c1OC(C)C [compound 805]
[1]; [3]
  IC50: > 10 µM

## CC(C)Oc1c(I)cc(I)c2cccnc12 [compound 807]
[1]; [3]
  IC50: > 10 µM

## Oc1c(-c2ccccc2)cc(Cl)c2cccnc12 [compound 808]
[1]; [3]
  IC50: > 10 µM
[2]
  Viable 10 uM: 71.89

## O=[N+]([O-])c1cccc(-c2cc(Cl)c3cccnc3c2O)c1 [compound 811]
[1]; [3]
  IC50: > 10 µM
[2]
  Viable 10 uM: 78.46

## Oc1c(-c2ccc(F)cc2)cc(Cl)c2cccnc12 [compound 812]
[1]; [3]
  IC50: > 10 µM
[2]
  Viable 10 uM: 75.36

## Oc1c(-c2cc(F)cc(F)c2)cc(Cl)c2cccnc12 [compound 813]
[1]; [3]
  IC50: > 10 µM
[2]
  Viable 10 uM: 66

## COc1ccc(-c2cc(Cl)c3cccnc3c2O)cc1 [compound 814]
[2]
  Viable 10 uM: 31.13

## Oc1c(-c2ccccc2F)cc(Cl)c2cccnc12 [compound 815]
[1]; [3]
  IC50: > 10 µM
[2]
  Viable 10 uM: 53.68

## CC(C)Oc1c(F)cc(-c2ccccc2)c2cccnc12 [compound 816]
[1]; [3]
  IC50: > 10 µM

## CC(C)Oc1c(F)cc(-c2cc(F)cc(F)c2)c2cccnc12 [compound 817]
[1]; [3]
  IC50: > 10 µM

## CC(C)Oc1c(-c2ccccc2)cc(Cl)c2cccnc12 [compound 818]
[1]; [3]
  IC50: > 10 µM

## COc1ccccc1-c1cc(Cl)c2cccnc2c1OC(C)C [compound 819]
[1]; [3]
  IC50: > 10 µM

## CC(C)Oc1c(-c2cc(F)cc(F)c2)cc(Cl)c2cccnc12 [compound 820]
[1]; [3]
  IC50: > 10 µM

## Brc1ccc(OCc2ccccc2)c2ncccc12 [compound 821]
[1]; [3]
  IC50: > 10 µM

## CC(=O)Oc1ccc(-c2cc(Cl)c3cccnc3c2OC(C)C)s1 [compound 822]
[1]; [3]
  IC50: > 10 µM

## CC(C)Oc1c(I)cc(-c2ccc(C(F)(F)F)cc2)c2cccnc12 [compound 823]
[1]; [3]
  IC50: > 10 µM

## COc1ccccc1-c1cc(-c2ccccc2OC)c2cccnc2c1OC(C)C [compound 824]
[1]; [3]
  IC50: > 10 µM

## COc1ccccc1-c1cc(I)c(OC(C)C)c2ncccc12 [compound 825]
[1]; [3]
  IC50: > 10 µM

## Cc1ccccc1-c1cc(I)c(OC(C)C)c2ncccc12 [compound 826]
[1]; [3]
  IC50: > 10 µM

## CC(C)Oc1c(-c2ccccc2C(F)(F)F)cc(Cl)c2cccnc12 [compound 827]
[1]; [3]
  IC50: > 10 µM

## O=Cc1ccccc1-c1cc(Cl)c2cccnc2c1O [compound 849]
[1]; [3]
  IC50: 4.5 µM
[2]
  Viable 10 uM: 98.83

## Oc1c(-c2cccc(F)c2)cc(Cl)c2cccnc12 [compound 850]
[1]; [3]
  IC50: > 10 µM
[2]
  Viable 10 uM: 71.28

## c1ccc(COc2cccc3cccnc23)cc1 [compound 855]
[1]; [3]
  IC50: > 10 µM

## CC(C)Oc1c(I)cc(-c2ccccc2F)c2cccnc12 [compound 856]
[1]; [3]
  IC50: > 10 µM

## CC(C)Oc1c(-c2cccc([N+](=O)[O-])c2)cc(Cl)c2cccnc12 [compound 857]
[1]; [3]
  IC50: > 10 µM

## CC(C)Oc1c(-c2cccc(F)c2)cc(Cl)c2cccnc12 [compound 858]
[1]; [3]
  IC50: > 10 µM

## Oc1c(I)cc(-c2ccccc2F)c2cccnc12 [compound 865]
[1]; [3]
  IC50: > 10 µM
[2]
  Viable 10 uM: 34.07

## Cc1ccccc1-c1cc(Cl)c2cccnc2c1OC(C)C [compound 866]
[1]; [3]
  IC50: > 10 µM

## CC(C)Oc1c(-c2ccccc2C=O)cc(Cl)c2cccnc12 [compound 867]
[1]; [3]
  IC50: > 10 µM

## CC(C)Oc1c(-c2ccc(N(C)C)cc2)cc(Cl)c2cccnc12 [compound 868]
[1]; [3]
  IC50: > 10 µM

## O=C(O)CNC(=O)c1ccc2cccc(O)c2n1 [compound 956]
[1]; [3]
  IC50: > 10 µM
[2]
  Viable 10 uM: 89

## Oc1cccc2ccc(-n3cccn3)nc12 [compound 964, 2-pyrazol-1-yl-quinolin-8-ol]
[1]; [3]
  IC50: 7.1 µM

## Oc1cccc2ccc(-n3ccnc3)nc12 [compound 965]
[1]; [3]
  IC50: > 10 µM

## CC(=O)NCc1ccc2cccc(O)c2n1 [compound 967]
[1]; [3]
  IC50: 7.8 µM
[2]
  Viable 10 uM: 90.69

## Oc1c(-c2cc3ccccc3s2)cc(Cl)c2cccnc12 [compound 970]
[1]; [3]
  IC50: 6.7 µM
[2]
  Viable 10 uM: 32.33

## Oc1c(-c2cc(Cl)c3cccnc3c2O)cc(Cl)c2cccnc12 [compound 971]
[1]; [3]
  IC50: > 10 µM
[2]
  Viable 10 uM: 84.29

## Oc1c(-c2ccsc2)cc(Cl)c2cccnc12 [compound 972]
[1]; [3]
  IC50: > 10 µM
[2]
  Viable 10 uM: 30.59

## Oc1c(-c2ccc(F)cc2F)cc(Cl)c2cccnc12 [compound 973]
[1]; [3]
  IC50: > 10 µM
[2]
  Viable 10 uM: 42.38

## O=C(O)CNC(=O)c1cc(O)c2cccc(O)c2n1 [compound 992]
[1]; [3]
  IC50: > 10 µM

## Cc1nccn1-c1ccc2cccc(O)c2n1 [compound 993]
[1]; [3]
  IC50: > 10 µM

## CCOC(=O)c1ccccc1-c1ccc2cccc(O)c2n1 [compound 1004]
[1]; [3]
  IC50: > 10 µM and 6.6 µM

## O=C(NCc1nccs1)c1ccc2cccc(O)c2n1 [compound 1019]
[1]; [3]
  IC50: > 10 µM

## COc1cccc2ccc(C(=O)NCCc3ccccn3)nc12 [compound 1022]
[1]; [3]
  IC50: > 10 µM

## CC(=O)Nc1ccc(O)c2ncccc12 [compound 1028]
[1]; [3]
  IC50: 0.32 µM

## Oc1ccc(F)c2cccnc12 [compound 1034]
[1]; [3]
  IC50: 0.44 µM

## O=S(=O)(NCCc1c[nH]cn1)c1ccc2cccc(O)c2n1 [compound 1035]
[1]; [3]
  IC50: > 10 µM

## Oc1cccc2cc3ccccc3nc12 [compound 1043]
[1]; [3]
  IC50: 0.64 µM

## CNc1ccc2c(Cl)cc(Cl)c(O)c2n1 [compound 1047, 5,7-Dichloro-2-methylamino-8-hydroxyquinoline]
[1]; [3]
  IC50: > 10 µM

## Nc1cnc2c(O)c(Cl)cc(Cl)c2c1 [compound 1060, 3-amino-5,7-dichloro-8-hydroxyquinoline]
[1]; [3]
  IC50: 0.5 µM
